Blank lines part the entries; values can stand above or below the compound they belong to.
Biological target: T1, Nav1.7 (or SCN9A) channel; HEK cells stably transfected with hSCN9A (Homo sapiens, UniProt Q15858)
T1 construct: expressed in transfected cells
Experiment: Nav1.7 block, PatchXpress 7000 automated whole-cell voltage clamp, estimated IC50 (EIC50)
Assay type: cell-based
Conditions: estimated IC50; hSCN9A HEK cells, PatchXpress platform; Examples 815-1040

T1 sequence (Q15858 whole entry): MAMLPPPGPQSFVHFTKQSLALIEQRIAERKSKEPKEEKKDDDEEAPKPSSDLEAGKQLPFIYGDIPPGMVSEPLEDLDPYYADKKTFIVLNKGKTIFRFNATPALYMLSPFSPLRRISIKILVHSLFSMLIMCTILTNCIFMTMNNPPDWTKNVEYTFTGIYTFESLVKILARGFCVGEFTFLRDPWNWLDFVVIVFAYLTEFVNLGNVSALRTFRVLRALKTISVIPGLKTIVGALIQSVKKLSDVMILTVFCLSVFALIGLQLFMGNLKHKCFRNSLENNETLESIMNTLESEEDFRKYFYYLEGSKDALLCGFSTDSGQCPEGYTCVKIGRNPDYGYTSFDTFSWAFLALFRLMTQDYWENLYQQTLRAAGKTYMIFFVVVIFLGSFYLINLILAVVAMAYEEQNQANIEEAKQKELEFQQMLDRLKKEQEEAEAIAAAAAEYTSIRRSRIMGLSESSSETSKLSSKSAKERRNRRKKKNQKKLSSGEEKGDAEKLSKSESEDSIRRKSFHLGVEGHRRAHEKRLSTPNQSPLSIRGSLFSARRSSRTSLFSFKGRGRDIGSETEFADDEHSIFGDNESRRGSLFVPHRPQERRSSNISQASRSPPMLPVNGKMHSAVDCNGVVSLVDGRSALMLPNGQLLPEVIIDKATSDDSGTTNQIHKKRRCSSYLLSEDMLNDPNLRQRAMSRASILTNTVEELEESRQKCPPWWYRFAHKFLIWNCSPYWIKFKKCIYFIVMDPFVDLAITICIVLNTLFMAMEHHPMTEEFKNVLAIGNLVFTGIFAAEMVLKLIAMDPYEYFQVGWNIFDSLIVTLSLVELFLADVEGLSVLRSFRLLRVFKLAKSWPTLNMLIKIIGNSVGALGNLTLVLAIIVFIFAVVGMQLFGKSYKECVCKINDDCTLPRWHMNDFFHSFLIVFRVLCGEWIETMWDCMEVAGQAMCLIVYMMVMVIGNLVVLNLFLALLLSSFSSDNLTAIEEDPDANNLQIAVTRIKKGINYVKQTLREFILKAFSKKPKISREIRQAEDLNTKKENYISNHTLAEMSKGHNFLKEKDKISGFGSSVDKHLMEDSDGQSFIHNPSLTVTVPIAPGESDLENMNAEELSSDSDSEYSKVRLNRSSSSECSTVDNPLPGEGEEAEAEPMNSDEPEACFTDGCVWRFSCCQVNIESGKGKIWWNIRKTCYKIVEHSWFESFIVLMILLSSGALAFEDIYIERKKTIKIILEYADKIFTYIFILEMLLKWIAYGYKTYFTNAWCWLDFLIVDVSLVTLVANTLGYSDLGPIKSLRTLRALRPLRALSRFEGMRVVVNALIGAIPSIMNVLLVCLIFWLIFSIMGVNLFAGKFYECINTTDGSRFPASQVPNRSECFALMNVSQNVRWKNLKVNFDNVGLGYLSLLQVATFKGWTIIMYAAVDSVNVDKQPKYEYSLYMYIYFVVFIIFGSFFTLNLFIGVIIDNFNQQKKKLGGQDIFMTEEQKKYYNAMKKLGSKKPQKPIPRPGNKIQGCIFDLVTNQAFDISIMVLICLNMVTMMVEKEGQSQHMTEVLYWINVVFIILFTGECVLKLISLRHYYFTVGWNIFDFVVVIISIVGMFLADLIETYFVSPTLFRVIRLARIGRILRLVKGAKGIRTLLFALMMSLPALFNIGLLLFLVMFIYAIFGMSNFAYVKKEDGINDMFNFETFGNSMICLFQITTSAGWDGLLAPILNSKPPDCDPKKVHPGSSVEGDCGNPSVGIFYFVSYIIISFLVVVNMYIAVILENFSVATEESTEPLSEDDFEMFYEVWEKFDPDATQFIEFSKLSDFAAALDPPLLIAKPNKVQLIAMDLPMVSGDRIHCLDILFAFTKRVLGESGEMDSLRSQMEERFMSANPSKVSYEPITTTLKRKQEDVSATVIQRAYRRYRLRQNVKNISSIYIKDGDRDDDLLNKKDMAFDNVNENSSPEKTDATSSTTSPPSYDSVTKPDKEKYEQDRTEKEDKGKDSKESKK

IC50: 63 nM
Compound: O=S(=O)(Nc1nncs1)c1cc(Cl)c(Oc2ccc(Cl)cc2-c2cccc(CN3CCC3)n2)cc1F [Example 831, 4-{2-[6-(azetidin-1-ylmethyl)pyridin-2-yl]-4-chlorophenoxy}-5-chloro-2-fluoro-N-1,3,4-thiadiazol-2-ylbenzenesulfonamide]

IC50: 420 nM
Compound: N#Cc1cc(S(=O)(=O)Nc2nncs2)ccc1Oc1ccc(Cl)cc1-c1ccnnc1 [Example 832, 4-(4-chloro-2-pyridazin-4-ylphenoxy)-3-cyano-N-1,3,4-thiadiazol-2-ylbenzenesulfonamide]

IC50: 5.9 nM
Compound: O=S(=O)(Nc1nncs1)c1cc(F)c(Oc2ccc(Cl)cc2-c2ccnc(N3CCNCC3)c2)cc1F [Example 833, 4-[4-chloro-2-(2-piperazin-1-ylpyridin-4-yl)phenoxy]-2,5-difluoro-N-1,3,4-thiadiazol-2-ylbenzenesulfonamide]

IC50: 3.9 nM
Compound: N#Cc1cc(S(=O)(=O)Nc2cscn2)ccc1Oc1ccc(Cl)cc1-c1ccnc(N2CCNCC2)c1 [Example 834, 4-[4-chloro-2-(2-piperazin-1-ylpyridin-4-yl)phenoxy]-3-cyano-N-1,3-thiazol-4-ylbenzenesulfonamide]

IC50: 2.1 nM
Compound: N#Cc1cc(S(=O)(=O)Nc2nncs2)ccc1Oc1ccc(Cl)cc1-c1ccnc(N2CCNCC2)c1 [Example 835, 4-[4-chloro-2-(2-piperazin-1-ylpyridin-4-yl)phenoxy]-3-cyano-N-1,3,4-thiadiazol-2-ylbenzenesulfonamide]

IC50: 40 nM
Compound: N#Cc1cc(S(=O)(=O)Nc2ncns2)ccc1Oc1ccc(Cl)cc1C1CCOCC1 [Example 836, 4-[4-chloro-2-(tetrahydro-2H-pyran-4-yl)phenoxy]-3-cyano-N-1,2,4-thiadiazol-5-ylbenzenesulfonamide]

IC50: 1.8 nM
Compound: O=S(=O)(Nc1ncns1)c1cc(F)c(Oc2ccc(Cl)cc2-c2ccnc(CN3CCC3)c2)cc1F [Example 838, 4-{2-[2-(azetidin-1-ylmethyl)pyridin-4-yl]-4-chlorophenoxy}-2,5-difluoro-N-1,2,4-thiadiazol-5-ylbenzenesulfonamide]

IC50: 130 nM
Compound: N#Cc1cc(S(=O)(=O)Nc2nncs2)ccc1Oc1ccc(Cl)cc1-c1cn[nH]c1 [Example 839, 4-[4-chloro-2-(1H-pyrazol-4-yl)phenoxy]-3-cyano-N-1,3,4-thiadiazol-2-ylbenzenesulfonamide]

More lines, now with the values behind:

Compound: O=S(=O)(Nc1ncns1)c1ccc(Oc2ccc(OC(F)(F)F)cc2-c2ccn[nH]2)c(F)c1 [Example 829, 3-fluoro-4-[2-(1H-pyrazol-5-yl)-4-(trifluoromethoxy)phenoxy]-N-1,2,4-thiadiazol-5-ylbenzenesulfonamide]
IC50: 34 nM

Compound: Nc1cccc(-c2cc(OC(F)(F)F)ccc2Oc2cc(F)c(S(=O)(=O)Nc3ncns3)cc2F)n1 [Example 830, 4-[2-(6-aminopyridin-2-yl)-4-(trifluoromethoxy)phenoxy]-2,5-difluoro-N-1,2,4-thiadiazol-5-ylbenzenesulfonamide]
IC50: 23 nM

Compound: O=S(=O)(Nc1ncns1)c1cc(F)c(Oc2ccc(OC(F)F)cc2-c2cn[nH]c2)cc1F [Example 837, 4-[4-(difluoromethoxy)-2-(1H-pyrazol-4-yl)phenoxy]-2,5-difluoro-N-1,2,4-thiadiazol-5-ylbenzenesulfonamide]
IC50: 5.8 nM

Compound: Nc1cc(-c2cc(F)ccc2Oc2cc(F)c(S(=O)(=O)Nc3ncns3)cc2Cl)[nH]n1 [Example 840, 4-[2-(3-amino-1H-pyrazol-5-yl)-4-fluorophenoxy]-5-chloro-2-fluoro-N-1,2,4-thiadiazol-5-ylbenzenesulfonamide]
IC50: 52 nM

Compound: O=S(=O)(Nc1cscn1)c1cc(F)c(Oc2ccc(C(F)(F)F)cc2-c2ccnn2C2CNC2)cc1F [Example 841, 4-[2-(1-azetidin-3-yl-1H-pyrazol-5-yl)-4-(trifluoromethyl)phenoxy]-2,5-difluoro-N-1,3-thiazol-4-ylbenzenesulfonamide]
IC50: 11 nM

Compound: N#Cc1cc(S(=O)(=O)Nc2ncns2)ccc1Oc1ccc(F)cc1C1CCOCC1 [Example 842, 3-cyano-4-[4-fluoro-2-(tetrahydro-2H-pyran-4-yl)phenoxy]-N-1,2,4-thiadiazol-5-ylbenzenesulfonamide]
IC50: 96 nM

Reference: patent US8541588B2, “Sulfonamide derivatives” (Pfizer Limited, priority 2009, dated 2013)
